From PMC4072508, “Genome-Wide Prediction and Validation of Peptides That Bind Human Prosurvival Bcl-2 Proteins” (PLoS Computational Biology, 2014)
Several values for one entry are separate records, joined by “and”; a condition that tells them apart may be missing. Identical values can stand only once. Like-named read-outs stand apart in the source and are kept apart here. Residues, ends and D or L forms follow the SMILES beside them. No end group written: not given here.

Assays:
Assay in all cases: Fluorescence polarization direct binding
[1] = target: T1, Bfl-1 (Homo sapiens, UniProt Q16548)
T1 construct: myc- Bfl-1 SPOT array & FP; made in house
T1 sequence (Q16548 with tags, fused parts or gaps): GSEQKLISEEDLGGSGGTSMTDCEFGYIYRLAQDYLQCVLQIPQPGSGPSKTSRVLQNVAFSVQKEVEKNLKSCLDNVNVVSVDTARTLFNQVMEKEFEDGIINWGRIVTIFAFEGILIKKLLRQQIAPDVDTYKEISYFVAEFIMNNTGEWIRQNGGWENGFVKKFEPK
Protocol: (§1) Peptides were purified by reverse-phase HPLC using a C18 column and a linear water/acetonitrile gradient. We re-analyzed the purified peptide by mass spectrometry if there was not a single well-defined peak in HPLC chromatogram.
(§2) Fluorescence polarization (FP) assays were done at 25°C in assay buffer (20 mM NaPO4, 50 mM NaCl, 1 mM EDTA, 0.001% Triton X (v/v), pH 7.8). […] For all FP experiments, the total well volume was 120 µl. […] Anisotropy was measured using a Spectramax M5 plate reader from Molecular Devices.
(§3) Direct binding curves were fit using Pylab/Scipy/Optimize to a single-site binding model utilized previously.
(§4) ^1Best-fit KD values determined by combining all replicate titration curves and fitting to a direct binding model (see Methods). […] Values with an X followed by a number indicate the highest concentration (the number, in nM) for which signal was measured yet no binding was detected.

[2] = target: T2, Bcl-2 (Homo sapiens, UniProt P10415, DEL53-91)
T2 construct: myc- Bcl-2 FP; made in house
Protocol: as §1, §2, §3, §4

[3] = target: T3, Mcl-1 (Homo sapiens, UniProt Q07820)
T3 construct: myc-Mcl-1 SPOT array & FP; made in house
Protocol: as §1, §2, §3, §4

[4] = target: T4, Bcl-w (Homo sapiens, UniProt Q92843, Q133R)
T4 construct: myc-Bcl-w SPOT array & FP; made in house
T4 sequence (Q92843 with tags, fused parts or gaps Q133R): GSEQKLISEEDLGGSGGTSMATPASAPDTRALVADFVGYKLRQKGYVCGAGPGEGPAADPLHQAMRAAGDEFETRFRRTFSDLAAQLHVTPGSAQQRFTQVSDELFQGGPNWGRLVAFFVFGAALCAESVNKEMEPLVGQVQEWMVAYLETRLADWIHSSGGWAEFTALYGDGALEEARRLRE
Protocol: as §1, §2, §3, §4

[5] = target: T5, Bcl-xL (Homo sapiens, UniProt Q07817)
T5 construct: myc-Bcl-xL SPOT array & FP; made in house
Protocol: as §1, §2, §3, §4

[6] = FP direct binding, 10 nM FAM-labeled peptide, receptor titrated, 25°C, pH 7.8, fit of all replicate titrations, X+number in a cell = highest concentration (nM) measured with no binding detected, given here as >, SPNS1 fit to raw fluorescence, read-out: Best-fit KD, Bfl-1
[7] = benchmark classification of peptides newly characterized in this study, read-out: Binder class, Bfl-1
[8] = FP direct binding, 10 nM FAM-labeled peptide, receptor titrated, 25°C, pH 7.8, fit of all replicate titrations, X+number in a cell = highest concentration (nM) measured with no binding detected, given here as >, SPNS1 fit to raw fluorescence, read-out: Best-fit KD, Bcl-2
[9] = benchmark classification of peptides newly characterized in this study, read-out: Binder class, Bcl-2
[10] = Binder class, Mcl-1, benchmark classification of peptides newly characterized in this study
[11] = FP direct binding, 10 nM FAM-labeled peptide, receptor titrated, 25°C, pH 7.8, fit of all replicate titrations, X+number in a cell = highest concentration (nM) measured with no binding detected, given here as >, SPNS1 fit to raw fluorescence
[12] = FP direct binding, 10 nM FAM-labeled peptide, receptor titrated, 25°C, pH 7.8, fit of all replicate titrations, X+number in a cell = highest concentration (nM) measured with no binding detected, given here as >, SPNS1 fit to raw fluorescence, read-out: Best-fit KD, Bcl-w
[13] = benchmark classification of peptides newly characterized in this study, read-out: Binder class, Bcl-w
[14] = FP direct binding, 10 nM FAM-labeled peptide, receptor titrated, 25°C, pH 7.8, fit of all replicate titrations, X+number in a cell = highest concentration (nM) measured with no binding detected, given here as >, SPNS1 fit to raw fluorescence, read-out: Best-fit KD, Bcl-xL
[15] = benchmark classification of peptides newly characterized in this study, read-out: Binder class, Bcl-xL

T3 sequence (Q07820 with tags, fused parts or gaps): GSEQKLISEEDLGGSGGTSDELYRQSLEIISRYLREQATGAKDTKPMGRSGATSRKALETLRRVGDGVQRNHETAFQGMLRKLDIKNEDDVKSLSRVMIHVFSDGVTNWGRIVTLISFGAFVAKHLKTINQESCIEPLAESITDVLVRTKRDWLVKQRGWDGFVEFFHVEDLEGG
T5 sequence (Q07817 with tags, fused parts or gaps): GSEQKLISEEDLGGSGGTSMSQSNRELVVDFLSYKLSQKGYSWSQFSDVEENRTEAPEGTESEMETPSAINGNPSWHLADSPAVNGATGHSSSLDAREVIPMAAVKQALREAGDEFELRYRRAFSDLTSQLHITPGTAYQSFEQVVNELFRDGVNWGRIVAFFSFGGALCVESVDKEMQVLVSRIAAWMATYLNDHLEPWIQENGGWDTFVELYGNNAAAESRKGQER
T2 sequence (P10415 with tags, fused parts or gaps DEL53-91): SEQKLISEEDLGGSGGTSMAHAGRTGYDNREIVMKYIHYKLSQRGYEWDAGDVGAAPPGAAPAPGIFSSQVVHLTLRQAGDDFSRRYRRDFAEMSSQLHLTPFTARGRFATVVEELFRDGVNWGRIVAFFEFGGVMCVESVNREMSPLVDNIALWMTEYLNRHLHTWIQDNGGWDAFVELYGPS

Kd [1, 6] | Kd [1, 7] [nM] | Kd [2, 8] | Kd [2, 9] [nM] | Kd [3, 10] [nM] | Kd [3, 11] | Kd [4, 12] | Kd [4, 13] [nM] | Kd [5, 14] [nM] | Kd [5, 15] [nM] | Best-fit KD, Bcl-2 [2, 11] | Best-fit KD, Bcl-w [4, 11] | Best-fit KD, Bcl-xL [5, 11] | Best-fit KD, Mcl-1 [3, 11] | Compound
< 30 nM and 1 nM | < 1000 | < 30 nM and 0.3 nM | < 1000 | < 1000 | < 30 nM and 23 nM | < 30 nM and 13 nM | < 1000 |  |  |  |  |  |  | CC[C@H](C)[C@H](N)C(=O)N[C@H](C(=O)N[C@@H](CCC(N)=O)C(=O)N[C@@H](CCSC)C(=O)N[C@H](C(=O)N[C@H](C(=O)N[C@@H](CCC(=O)O)C(=O)N[C@@H](CC(C)C)C(=O)N[C@@H](CC(C)C)C(=O)N[C@@H](CCCCN)C(=O)N[C@@H](CCCNC(=N)N)C(=O)N[C@H](C(=O)NCC(=O)N[C@@H](CC(=O)O)C(=O)N[C@@H](CCC(N)=O)C(=O)N[C@@H](Cc1c[nH]c2ccccc12)C(=O)N[C@@H](CCC(=O)O)C(=O)N[C@@H](CCC(=O)O)C(=O)N[C@@H](CCC(=O)O)C(=O)N[C@@H](CCC(N)=O)C(=O)N[C@@H](CO)C(=O)N[C@@H](CC(C)C)C(=O)N[C@@H](C)C(N)=O)C(C)C)C(C)C)[C@@H](C)CC)[C@@H](C)CC [C6orf222]
> 4000 nM |  | 562 nM |  | > 10000 | > 10000 nM | > 4000 nM |  | 2720 |  |  |  |  |  | CC(C)C[C@H](NC(=O)CNC(=O)[C@@H](NC(=O)[C@H](CCCCN)NC(=O)[C@H](CCCCN)NC(=O)[C@H](CC(N)=O)NC(=O)[C@H](CCC(=O)O)NC(=O)[C@H](CC(=O)O)NC(=O)[C@@H](N)[C@@H](C)O)C(C)C)C(=O)N[C@@H](C)C(=O)N[C@@H](CC(C)C)C(=O)N[C@@H](CCCCN)C(=O)N[C@@H](CC(=O)O)C(=O)N[C@@H](CC(C)C)C(=O)N[C@@H](C)C(=O)N[C@@H](CCCCN)C(=O)N[C@@H](CCC(N)=O)C(=O)N[C@@H](Cc1ccc(O)cc1)C(=O)N[C@@H](CO)C(=O)N[C@@H](CC(=O)O)C(=O)N[C@@H](CCCNC(=N)N)C(=O)N[C@@H](CC(C)C)C(=O)N[C@@H](CCC(=O)O)C(=O)N[C@@H](CS)C(=O)N[C@@H](CS)C(=O)N[C@@H](CCC(=O)O)C(N)=O [NUB1] (H-TDENKKVGLALKDLAKQYSDRLECCE-NH2)
> 4670 nM | > 10000 | 1410 nM | 1000 to 10000 | < 1000 | 1460 nM | 2490 nM | 1000 to 10000 | 2050 | 1000 to 10000 |  |  |  |  | FTGNNTAVQELKRVSEQFTATFRRKA-NH2 [TUBB4Q]
> 3370 nM | > 10000 | > 3050 nM | 1000 to 10000 | > 10000 | 3850 nM | > 4350 nM | > 10000 | > 7000 | > 10000 |  |  |  |  | QRKHEGFERDLAALGDKVNSLGETAE-NH2 [SPTAN1]
3270 nM | 1000 to 10000 | 16 nM | < 1000 | 1000 to 10000 | 3810 nM | 29 nM | < 1000 | 10 | < 1000 | bound tightly | bound tightly | bound tightly |  | LRLFLAQRLRWLADSAPASRATA-NH2 [NBEAL2]
> 4670 nM | > 10000 | > 100000 nM | 1000 to 10000 | > 10000 | > 5030 nM | 5870 nM | 1000 to 10000 | > 4000 | > 10000 |  |  |  |  | LSDGLPVHLANIADELTQKKKMF-NH2 [AGBL2]
1130 nM | 1000 to 10000 | 266 nM | < 1000 | > 10000 | > 10000 nM | 1230 nM | 1000 to 10000 | 1010 | 1000 to 10000 |  |  |  |  | ATRRLSGFLRTLADRLEGTKELL-NH2 [MINA]
> 4670 nM | > 10000 | 2060 nM | > 10000 | 1000 to 10000 | > 4000 nM | > 4500 nM | > 10000 | > 100000 | > 10000 |  |  |  |  | ATKRETAATFLKKVAKEFGFQNNGFS-NH2 [NPLOC4]
> 3370 nM | > 10000 | 130 nM | < 1000 | > 10000 | > 10000 nM | 85 nM | < 1000 | 103 | < 1000 | bound tightly | bound tightly | bound tightly |  | KKMTLSEIYRWIADNFPYYKNAG-NH2 [FOXJ2]
> 3290 nM | > 10000 | 3290 nM | 1000 to 10000 | > 10000 | > 4000 nM | 5380 nM | 1000 to 10000 | > 6900 | > 10000 |  |  |  |  | LMARPAVALHFQSIADGFKEAVRYVL-NH2 [SOS2]
> 2280 nM | > 10000 | 98 nM | < 1000 | > 10000 | > 10000 nM | 98 nM | < 1000 | 39 | < 1000 | bound tightly | bound tightly | bound tightly |  | RSMVFARHLREVGDEFRSRHLNS-NH2 [POFUT2]
99 nM | < 1000 | 49 nM | < 1000 | < 1000 | 69 nM | 992 nM | < 1000 |  | 1000 to 10000 |  |  |  |  | GSGAWGLLLRRVGDDVLVHLLAR-NH2 [TERT]
> 4070 nM | > 10000 | > 3050 nM | > 10000 | < 1000 | 22 nM | > 6560 nM | > 10000 | > 4000 | > 10000 |  |  |  | bound tightly | THEEVVHLLRNAGDEVTITVEYL-NH2 [SNTG2]
> 3370 nM | > 10000 | > 3050 nM | < 1000 | < 1000 | 142 nM | > 4350 nM | 1000 to 10000 | > 4000 | > 10000 |  |  |  | bound tightly | KREKLVEILRNIGDERTMVFVET-NH2 [DDX4]
4680 nM | 1000 to 10000 | 2990 nM | 1000 to 10000 | > 10000 | 912 nM | 3610 nM | < 1000 | 2540 | 1000 to 10000 |  |  |  |  | SKFVILSAHKLVFIGDTLSRQAKAAD-NH2 [BCAR1]
> 3370 nM |  | > 3050 nM |  |  |  | > 4350 nM |  |  |  |  |  |  |  | CC[C@H](C)[C@H](NC(=O)[C@H](CCC(N)=O)NC(=O)[C@H](C)NC(=O)[C@H](CC(C)C)NC(=O)[C@H](Cc1ccc(O)cc1)NC(=O)[C@H](CCCNC(=N)N)NC(=O)[C@H](CO)NC(=O)[C@H](CCC(=O)O)NC(=O)[C@@H]1CCCN1C(=O)[C@@H](NC(=O)[C@@H](NC(=O)[C@H](CCC(=O)O)NC(=O)[C@@H](NC(=O)[C@@H](N)CCCCN)[C@@H](C)CC)[C@@H](C)O)[C@@H](C)O)C(=O)NCC(=O)N[C@@H](CC(=O)O)C(=O)N[C@@H](CO)C(=O)N[C@H](C(=O)N[C@@H](CO)C(=O)N[C@@H](CC(C)C)C(=O)N[C@H](C(=O)N[C@@H](CS)C(=O)N[C@@H](CO)C(=O)N[C@H](C(=O)N[C@H](C(=O)NCC(N)=O)[C@@H](C)O)[C@@H](C)O)[C@@H](C)O)C(C)C [VCAM1]
43 nM | < 1000 | 264 nM | < 1000 | 1000 to 10000 |  | 64 nM | < 1000 |  |  |  |  |  |  | FIQSLAAMLKQYADKLEFMHILT-NH2 [CASP3]
1600 nM | 1000 to 10000 | 70 nM | > 10000 |  |  | 907 nM | > 10000 |  | < 1000 |  |  |  |  | DARDYAVVLRKYADKIYSISMKH-NH2 [FOLH1]
